Test results taken from PMC8395040 (International Journal of Molecular Sciences, 2021).

Key:
HCT116 [1] = experiment: MTT cytotoxicity assay, HCT116; type: cell-based; conditions: Homo sapiens, HCT-116, 72 h, MTT; for cytotoxicity at 50 µM: read-out: % Cytotoxicity (50 µM) HCT116; for IC50: 0.05–50 µM
Procedure: (§1) Cytotoxicity assays were performed by using the MTT reduction method as described previously. Briefly, cancer cell lines were plated in flat-bottom 96-well plates at a cell concentration of 5 × 10^3 cells/well for the fastest growing lines, such as HEK293 and HT29 cells and 1 × 10^4 cells/well for more slowly growing lines, such as HCT116, H1975, BxPC-3, AsPC-1, B16-F10 and DAOY. Then, cells were incubated with the synthesised compounds at different concentrations (from 0.05 to 50 µM) in 200 µL with 10% FBS in RPMI 1640 or DMEM F12 culture medium at 37 °C for 72 h. Later, 10 µL of MTT were added at a final concentration of 0.5 mg/mL, incubated at 37 °C for 4 h, and then solubilised with 10% sodium dodecyl sulphate (SDS) in 0.1 mM HCl and incubated overnight at 37 °C. Formazan formation was measured at 570 nm in a multiwell plate reader (Cytation 5, Biotek Instruments, Winooski, VT, USA). Three independent biological replicates were performed.

H1975 = experiment: MTT cytotoxicity assay, H1975; type: cell-based; conditions: Homo sapiens, NCI-H1975, 72 h, MTT; for cytotoxicity at 50 µM: read-out: % Cytotoxicity (50 µM) H1975; for IC50: 0.05–50 µM
Procedure: as §1

HEK293 = experiment: CFSE proliferation assay, HEK293; type: cell-based, human; conditions: 19 µM, 48 h
Procedure: (§2) HT29 and HEK293 cells were resuspended at 1 × 10^6/mL in DMEM F12 without FBS. A 5 mM CFSE stock solution carboxyfluorescein diacetate succinimidyl ester (Cell Proliferation Kit, Life Technologies, Carlsbad, CA, USA) in DMSO was added to a final concentration of 5 µM and incubated at 37 °C for 15 min protected from light. At the end of the incubation period, the cells were immediately washed twice in cold PBS 1X/no-FBS. Cells were washed three times in PBS 1×/10%-FBS and resuspended in the same medium and plated in 12-well plates at a density of 1 × 10^5 cells/200 µL medium and grown overnight at 37 °C in a 5% CO2 humidified atmosphere. […] The cells were collected and then analysed by flow cytometry (BD; FACScanto II, Mountain View, CA, USA) and data were processed using FCS Express v6 software. Two independent biological replicates were performed.

[2] = MTT cytotoxicity assay, HEK293 control cells; type: cell-based, human; conditions: human, HEK293 cells; 50 µM, 72 h, MTT;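 further: Read-out is formazan absorbance at 570 nm from MTT reduction in 96-well plates, with three independent biological replicates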
Daoy = experiment: MTT cytotoxicity assay, Daoy; type: cell-based, human; conditions: Homo sapiens, Daoy, 72 h, MTT; for cytotoxicity at 50 µM: read-out: % Cytotoxicity (50 µM) DAOY;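 on all read-outs here: viability read as formazan absorbance at 570 nm after MTT reduction, three independent biological replicates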
HT29 [3] = experiment: CFSE proliferation assay, HT29; type: cell-based, human; conditions: 19 µM, 48 h
Procedure: as §2

Gli1 mRNA in Smo−/− MEFs = experiment: Gli1 mRNA (qRT-PCR) in Smo−/− MEFs; type: cell-based, mouse; conditions: 24 h and/or 48 h
Procedure: HEK293T and Smo^−/−, Ptch^−/− MEFs cells were cultured in DMEM plus 10% FBS, 1% L-glutamine and antibiotics. Transient transfections were performed using DreamFectTM Gold transfection reagent (Oz Biosciences SAS, Marseille, France) following the manufacturer’s instructions and for varying periods of time depending on the experiment (24–72 h). […] Vehicle (DMSO) was used as control.
Total RNA was isolated with Trizol (Invitrogen/Life Technologies, Carlsbad, CA, USA) from Smo^−/− MEFs, Ptch^−/− MEFs or HT29 cells treated for 24 h and/or 48 h with 4s at different concentrations and reverse transcribed with the SensiFAST cDNA Synthesis Kit (Bioline Reagents Limited, London, UK). Quantitative real-time PCR (Q-PCR) analysis of Gli1 and housekeeping (HPRT, TBP, HMBS) mRNA levels was performed on each cDNA sample using the VIIA7 Real Time PCR System employing Assay-on-Demand Reagents (Life Technologies) as previously described. […] Each amplification reaction was performed in triplicate, the average of the three threshold cycles was used to calculate the amount of transcript in the sample (using SDS version 2.3 Software). mRNA quantification was expressed in arbitrary units as the ratio of the sample quantity to the quantity of the calibrator (ΔCt method). […]

HT29 [4] = experiment: Cell cycle analysis (PI, flow cytometry), HT29; type: cell-based, human; conditions: 19 µM, 24 h, compared to the control
Procedure: HT29 and HEK293 cells were plated in 6-well plates at a density of 2.0 × 10^5 cells/1.5 mL/well and grown overnight at 37 °C in a 5% CO2 humidified atmosphere. […] Aliquots of cells were collected, pelleted, washed, and fixed with ethanol (70% v/v) for at least 30 min at 4 °C. Cells were resuspended twice in PBS and, after centrifugation and elimination of the supernatant, they were finally resuspended in a PBS solution containing propidium iodide (PI; […], Invitrogen), RNase A ([…], Invitrogen). After a final incubation for 1 h in the dark at 37 °C, the PI signal was measured using a FACS Canto II Flow-cytometer (BD; Mountain View, CA) with a 488 nm excitation laser, captured and FACS DIVA was used as the acquisition software. The percentage of cells in each phase was analysed using the FCS Express v6 software. Two independent biological replicates were performed.

AsPC-1 = experiment: MTT cytotoxicity assay, AsPC-1; type: cell-based; conditions: Homo sapiens, ASPC1, 72 h, 0.05–50 µM
Procedure: as §1

HT29 [5] = experiment: MTT cytotoxicity assay, HT29; type: cell-based; conditions: Homo sapiens, HT-29, 72 h, MTT; for cytotoxicity at 50 µM: read-out: % Cytotoxicity (50 µM) HT29; for IC50: 0.05–50 µM
Procedure: as §1

BxPC-3 = experiment: MTT cytotoxicity assay, BxPC-3; type: cell-based; conditions: Homo sapiens, 72 h, 0.05–50 µM
Procedure: as §1

HCT116 [6] = experiment: Colony formation assay, HCT116; type: cell-based, human; conditions: 5 µM, 14 d
Procedure: HT29, HCT116, H1975 and HEK293 cells were seeded in a 6-well plate (1 × 10^4 cells per well) and incubated overnight in DMEM F12 supplemented with 10% FBS. […] After 72 h, the medium was replaced by fresh medium without stimuli, and cells were incubated for an additional 14 d to permit colony formation. The cells were fixed during 30 min with PFA 4% (v/v), washed and stained for 30 min at RT with a 5% solution of violet crystal for final colony counting. Three independent replicates were performed.

CS(=O)(=O)c1ccc(C(=O)Nc2ccc(Cl)c(-c3ccccn3)c2)c(Cl)c1 [Vismodegib, reference compound]
cytotoxicity at 50 µM (HCT116 [1]): < 50% | IC50 (HCT116 [1]): > 50 µM | cytotoxicity at 50 µM (H1975): 53 ± 1.2% | IC50 (H1975): > 50 µM | HEK293 cell proliferation (CFSE) (HEK293): less effect on reducing proliferation than 4s | cytotoxicity at 72 h, 50 µM [2]: < 50% | IC50 (Daoy; 0.05–50 µM): > 50 µM | cytotoxicity at 50 µM (Daoy): < 50% | HT29 cell proliferation (CFSE) (HT29 [3]): less effect on reducing proliferation than 4s | GLI1 mRNA levels in Smo−/− MEFs (Gli1 mRNA in Smo−/− MEFs): did not affect the mRNA levels of GLI1 | increase of the G1/G0 phase (HT29 [4]): 10% | IC50 (AsPC-1): > 50 µM | cytotoxicity at 50 µM (HT29 [5]): < 50% | IC50 (HT29 [5]): > 50 µM | IC50 (BxPC-3): > 50 µM | colony formation HCT116 (HCT116 [6]): less effective than 4s

CCCCCCn1cnc2c(-c3ccc(OC(F)(F)F)cc3)nc(N3CCN(c4ccncc4)CC3)nc21 [Compound 4s, 9-Hexyl-2-(4-(pyridin-4-yl)piperazin-1-yl)-6-(4-(trifluoromethoxy)phenyl)-9H-purine]
cytotoxicity at 50 µM (HCT116 [1]): 99 ± 0.4% | IC50 (HCT116 [1]): 1.3 ± 0.4 µM | cytotoxicity at 50 µM (H1975): 99 ± 0.2% | IC50 (H1975): 1.5 ± 0.3 µM | HEK293 cell proliferation (CFSE) (HEK293): no effect | cytotoxicity at 72 h, 50 µM [2]: < 50% | cytotoxicity at 50 µM (Daoy): 98 ± 0.3% | HT29 cell proliferation (CFSE) (HT29 [3]): significantly reduced HT29 cell proliferation | GLI1 mRNA levels in Smo−/− MEFs (Gli1 mRNA in Smo−/− MEFs): did not affect the mRNA levels of GLI1 | decrease in S phase (HT29 [4]): 12% | increase of the G1/G0 phase (HT29 [4]): 24% | IC50 (AsPC-1): 1.7 ± 0.05 µM | cytotoxicity at 50 µM (HT29 [5]): 25 ± 2.7% | IC50 (HT29 [5]): 15 ± 1.2 µM | IC50 (BxPC-3): 4.1 ± 0.9 µM | colony formation HCT116 (HCT116 [6]): totally inhibited the formation of colonies
